Values of other authors, collected in paper PMC9943811 (Diabetes Therapy, 2022).

Details: ref [19], [20]

In the case of `N[C@@H](CC(=O)N1CCn2c(nnc2C(F)(F)F)C1)Cc1cc(F)c(F)cc1F` [sitagliptin], the terminal half-life is listed as “around 12 h”.
